# Results published in patent US20190002942A1, “ANTIBIOTIC FIIRV 104/18 COMPLEX AND THE ISOLATED INDIVIDUAL FACTORS THEREOF” (Fondazione Istituto Insubrico di Ricerca per la Vita, priority 2015, published 2019).
# Like-named read-outs stand apart in the source and are kept apart here.
# Columns and labels:
# [1] = test system: L145 C. albicans; assay: MIC, broth microdilution (CLSI); format: cell-based, Candida albicans
# Procedure: (§1) Antimicrobial activity of the antibiotic FIIRV 104/18 complex is determined by the broth microdilution method according to the procedures published by the Clinical and Laboratory Standards Institute (CLSI), formerly the National Committee for Clinical Laboratory Standards (NCCLS) (document M07-A9). Inocula are: 2-5×10^5 CFU/mL for Gram positive and Gram negative bacteria; 10^4 CFU/mL for Candida albicans.
# (§2) The media used are: cation adjusted Mueller Hinton broth (CAMHB) for Staphylococci, Enterococci, Moraxella catarrhalis, Escherichia coli; Todd Hewitt broth (THB) for Streptococci; RPMI 1640 Medium for C. albicans. The effect of 30% bovine serum is determined under the same experimental conditions.
# (§3) Cultures are incubated at 35° C. in air. After 18-24 hours visual readings are performed and MICs determined. The MIC (Minimal Inhibitory Concentration) is defined as the lower concentration of antibiotic at which there is no visible growth. The strains used are clinical isolates or strains from American Type Culture Collection (ATCC). Individual factors of antibiotic FIIRV 104/18 are dissolved in DMSO to obtain a 1000 μg/mL stock solution, and subsequently diluted in water to obtain working solution.
# [2] = test system: Gram-positive susceptible, resistant and multi-resistant pathogenic bacteria; assay: Growth inhibition of Gram-positive bacteria (summary); format: cell-based; conditions: Gram positive bacteria: Staphylococci incl. MRSA and MR coagulase-negative, Streptococci, Enterococci incl. VanA
# Procedure: as §1, §2, §3
# [3] = test system: L2048 B. cenocepacia; assay: MIC, broth microdilution (CLSI); format: cell-based; conditions: Burkholderia cenocepacia
# Procedure: as §1, §2, §3
# [4] = test system: L3294 M. catarrhalis; assay: MIC, broth microdilution (CLSI); format: cell-based; conditions: Moraxella catarrhalis
# Procedure: (§4) Inocula are: 2-5×10^5 CFU/mL for Gram positive and Gram negative bacteria; 10^4 CFU/mL for Candida albicans.
# (§5) The effect of 30% bovine serum is determined under the same experimental conditions.
# (§6) Cultures are incubated at 35° C. in air. After 18-24 hours visual readings are performed and MICs determined. The MIC (Minimal Inhibitory Concentration) is defined as the lower concentration of antibiotic at which there is no visible growth. The strains used are clinical isolates or strains from American Type Culture Collection (ATCC).
# [5] = test system: L1400 S. aureus MRSA; assay: MIC, broth microdilution (CLSI); format: cell-based; conditions: Staphylococcus aureus
# Procedure: as §4, §5, §6
# [6] = test system: L44 S. pneumoniae; assay: MIC, broth microdilution (CLSI); format: cell-based; conditions: Streptococcus pneumoniae
# Procedure: as §4, §5, §6
# [7] = test system: L568 E. faecium; assay: MIC, broth microdilution (CLSI); format: cell-based; conditions: Enterococcus faecium
# Procedure: as §4, §5, §6
# [8] = test system: L1730 S. haemolyticus; assay: MIC, broth microdilution (CLSI); format: cell-based; conditions: Staphylococcus haemolyticus
# Procedure: as §4, §5, §6
# [9] = test system: L49 S. pyogenes C203; assay: MIC, broth microdilution (CLSI); format: cell-based; conditions: Streptococcus pyogenes
# Procedure: as §4, §5, §6
# [10] = test system: L1729 S. haemolyticus MDR; assay: MIC, broth microdilution (CLSI); format: cell-based; conditions: Staphylococcus haemolyticus
# Procedure: as §4, §5, §6
# [11] = test system: L47 E. coli, SKF 12140; assay: MIC, broth microdilution (CLSI); format: cell-based; conditions: Escherichia coli
# Procedure: as §4, §5, §6
# [12] = test system: L100 S. aureus ATCC 6538; assay: MIC, broth microdilution (CLSI); format: cell-based; conditions: Staphylococcus aureus, ATCC6538
# Procedure: as §4, §5, §6
# [13] = test system: L1577 S. epidermidis; assay: MIC, broth microdilution (CLSI); format: cell-based; conditions: Staphylococcus epidermidis
# Procedure: as §4, §5, §6
# [14] = test system: L559 E. faecalis; assay: MIC, broth microdilution (CLSI); format: cell-based; conditions: Enterococcus faecalis
# Procedure: as §4, §5, §6
# [15] = test system: L3030 A. baumannii; assay: MIC, broth microdilution (CLSI); format: cell-based; conditions: Acinetobacter baumannii
# Procedure: as §4, §5, §6
# [16] = test system: L819 S. aureus Smith ATCC19636; assay: MIC, broth microdilution (CLSI); format: cell-based, Staphylococcus aureus; conditions: Staphylococcus aureus
# Procedure: as §4, §5, §6
# [17] = test system: L560 E. faecalis VanA; assay: MIC, broth microdilution (CLSI); format: cell-based, Enterococcus faecalis; conditions: Enterococcus faecalis, L560 E. faecalis VanA
# Procedure: as §4, §5, §6
# [18] = test system: L569 E. faecium VanA; assay: MIC, broth microdilution (CLSI); format: cell-based, Enterococcus faecium; conditions: Enterococcus faecium, L569 E. faecium VanA
# Procedure: as §4, §5, §6
# [19] = test system: HeLa cells; assay: Inhibition of replication of HeLa cells; format: cell-based
# [20] = Candida albicans, L145 C. albicans, RPMI, inoculum 10^4 CFU/mL, read-out: MIC
# [21] = L2048 B. cenocepacia, read-out: MIC
# [22] = L3294 M. catarrhalis, CAMHB, read-out: MIC
# [23] = L1400 S. aureus MRSA, CAMHB, read-out: MIC
# [24] = L44 S. pneumoniae, THB, read-out: MIC
# [25] = L568 E. faecium, CAMHB, read-out: MIC
# [26] = L1730 S. haemolyticus, CAMHB, read-out: MIC
# [27] = L49 S. pyogenes C203, THB, read-out: MIC
# [28] = L1729 S. haemolyticus MDR, CAMHB, read-out: MIC
# [29] = L47 E. coli, SKF 12140, CAMHB, read-out: MIC
# [30] = L100 S. aureus ATCC 6538, CAMHB, read-out: MIC
# [31] = L1577 S. epidermidis, CAMHB, read-out: MIC
# [32] = L559 E. faecalis, CAMHB, read-out: MIC
# [33] = L3030 A. baumannii, read-out: MIC
# [34] = ATCC19636, L819 S. aureus Smith ATCC19636, CAMHB, read-out: MIC
# [35] = ATCC19636, L819 S. aureus Smith, +30% SB (bovine serum), read-out: MIC
# [36] = +30% SB (bovine serum), read-out: MIC
Compound,"MIC [1, 20] [µg/mL]",antibacterial activity (in words) [2],"MIC [3, 21] [µg/mL]","MIC [4, 22] [µg/mL]","MIC [5, 23] [µg/mL]","MIC [6, 24] [µg/mL]","MIC [7, 25] [µg/mL]","MIC [8, 26] [µg/mL]","MIC [9, 27] [µg/mL]","MIC [10, 28] [µg/mL]","MIC [11, 29] [µg/mL]","MIC [12, 30] [µg/mL]","MIC [13, 31] [µg/mL]","MIC [14, 32] [µg/mL]","MIC [15, 33] [µg/mL]","MIC [16, 34] [µg/mL]","MIC [16, 35] [µg/mL]","MIC [17, 36] [µg/mL]","MIC ([17]; CAMHB, read-out: MIC) [µg/mL]","MIC [18, 36] [µg/mL]",also measured
"C[C@@H]1[C@H](O)[C@@H](C)/C=C/C=C/C=C/C=C/C=C/C=C/C=C/[C@H](O[C@@H]2O[C@H](C)[C@@H](O)[C@H](N)[C@@H]2O)C[C@@H]2O[C@](O)(C[C@@H](O)C[C@@H](O)[C@H](O)CC[C@@H](O)C[C@@H](O)CC(=O)O[C@H]1C)C[C@H](O)[C@H]2C(=O)O [AmB, Amphotericin B, reference compound]",,,,,,,,,,,,,,,,,,,,,"MIC ([1]; L145 C. albicans, RPMI, inoculum 10^4 CFU/mL): 1 µg/mL"
"COC(=O)c1c(C)cc2c(c1O)[C@]1(O)C(=O)c3cc4c(c(O)c3C(=O)[C@]1(OC)[C@H](O)C2)C(=O)C=C(NC1O[C@@H](C)[C@H](O)[C@@H](O)[C@H]1OC)C4=O (stereo partly drawn) [F683, 6R,6aS,14aR-methyl-11,6,8,14a-tetrahydroxy-11[(2S,3R,4R,5R,6S)-4,5-dihydroxy-3-methoxy-6-methyltetrahydro-2H-pyran-2-ylamino]-6a-methoxy-3-methyl-7,9,12,14-tetraoxo-5,6,6a,7,9,12,14,14a-octahydrobenzo[α]tetracene-2-carboxylate]",> 128,very high antibacterial activity,> 128,0.5,0.5,0.125,16,0.5,0.125,0.5,> 128,2,0.5,8,> 128,0.5,8,32,8,> 32,"MIC ([18]; CAMHB, read-out: MIC): 16 µg/mL"
"COC(=O)c1c(C)cc2c(c1O)C1(O)C(=O)c3cc4c(c(O)c3C(=O)C1(OC)[C@H](O)C2)C(=O)C=C(NC1O[C@@H](C)[C@H](OC2C=CC(=O)C(C)O2)[C@@H](O)[C@H]1OC)C4=O (stereo partly drawn) [F793, (6R,6aS,14aR)-methyl 11-[(2S,3R,4R,5R,6S)-4-hydroxy-3-methoxy-6-methyl-5-{[(2S,6S)-6-methyl-5-oxo-5,6-dihydro-2H-pyran-2-yl]oxy}tetrahydro-2H-pyran-2-ylamino]-1,6,8,14a-tetrahydroxy-6a-methoxy-3-methyl-7,9,12,14-tetraoxo-5,6,6a,7,9,12,14,14a-octahydrobenzo[α]tetracene-2-carboxylate]",,very high antibacterial activity,,,,,,,,,,,,,,,,,,,"MIC ([1]; Candida albicans): > 128 µg/mL; MIC [3]: 128 µg/mL; MIC [4]: 1 µg/mL; MIC ([5]; MRSA): 0.5 µg/mL; MIC [6]: 0.06 µg/mL; MIC [7]: 1 µg/mL; MIC [8]: 1 µg/mL; MIC [9]: 0.03 µg/mL; MIC [10]: 1 µg/mL; MIC [11]: > 128 µg/mL; MIC [12]: 1 µg/mL; MIC [13]: 0.25 µg/mL; MIC [14]: 0.5 µg/mL; MIC [15]: 128 µg/mL; MIC ([16]; ATCC19636, L819 S. aureus Smith ATCC19636, CAMHB): 0.5 µg/mL; MIC ([16]; ATCC19636, L819 S. aureus Smith, +30% SB (bovine serum)): 4 µg/mL; MIC ([17]; +30% SB (bovine serum)): 2 µg/mL; MIC ([17]; CAMHB): 0.5 µg/mL; MIC ([18]; +30% SB (bovine serum)): 16 µg/mL; MIC ([18]; CAMHB): 1 µg/mL"
"COC(=O)c1c(C)cc2c(c1O)[C@]1(O)C(=O)c3cc4c(c(O)c3C(=O)[C@]1(OC)[C@H](O)C2)C(=O)C=C(NC1O[C@@H](C)[C@H](OC2CC[C@H](O)C(C)O2)[C@@H](O)[C@H]1OC)C4=O (stereo partly drawn) [F797, (6R,6aS,14aR)-methyl 11-[(2S,3R,4R,5R,6S)-4-hydroxy-5-{[(2R,5S,6S)-5-hydroxy-6-methyltetrahydro-2H-pyran-2-yl]oxy}-3-methoxy-6-methyltetrahydro-2H-pyran-2-ylamino]-1,6,8,14a-tetrahydroxy-6a-methoxy-3-methyl-7,9,12,14-tetraoxo-5,6,6a,7,9,12,14,14a-octahydrobenzo[α]tetracene-2-carboxylate]",> 128,very high antibacterial activity,16,0.06,0.015,0.004,0.5,0.015,0.002,0.015,64,0.008,0.015,0.25,16,0.002,0.125,0.5,0.125,2,"cytotoxicity (in words) ([19]; HeLa cells): moderate cytotoxicity; IC50 ([19]; Homo sapiens, HeLa): 5 µg/mL; MIC ([18]; CAMHB, read-out: MIC): 0.5 µg/mL"
"COC(=O)c1c(C)cc2c(c1O)[C@]1(O)C(=O)c3cc4c(c(O)c3C(=O)[C@]1(OC)[C@H](O)C2)C(=O)C=C(NC1O[C@@H](C)[C@H](OC2C[C@H](O)[C@H](O)C(C)O2)[C@@H](O)[C@H]1OC)C4=O (stereo partly drawn) [F813, (6R,6aS,14aR)-methyl 11-[(2S,3R,4R,5R,6S)-5-{[(2R,5S,6S)-4,5-dihydroxy-6-methyltetrahydro-2H-pyran-2-yl]oxy}-4-hydroxy-3-methoxy-6-methyltetrahydro-2H-pyran-2-ylamino]-1,6,8,14a-tetrahydroxy-6a-methoxy-3-methyl-7,9,12,14-tetraoxo-5,6,6a,7,9,12,14,14a-octahydrobenzo[α]tetracene-2-carboxylate]",> 128,very high antibacterial activity,64,0.5,0.5,0.125,4,0.5,0 to 125,0.5,128,0.125,0.5,4,128,0.125,1,16,4,16,"MIC ([18]; CAMHB, read-out: MIC): 4 µg/mL"
